Assay results as given in patent publication US6706686B2, “Inhibition of histone deacetylase as a treatment for cardiac hypertrophy” (The Regents of the University of Colorado, priority 2001, dated 2004).
Entries after “also recorded” stand apart in the source; their conditions may differ.

Legend:
[1] = tested on: CMV-Lac Z reporter in neonatal rat cardiomyocytes; assay: CMV-Lac Z reporter (specificity control); assay type: cell-based; conditions: inhibitor alone or together with phenylephrine
Procedure: (§1) FIGS. 3A-D. HDAC inhibitors block the activation of ANF reporter by phenylphrine without cytotoxicity. Neonatal rat cardiomyocytes were co-transfected with a total of 1 μg of the mouse 3 kb ANF promoter fragment and CMV-Lac Z plasmids. (FIG. 3A) The ANF promoter is minimally active in unstimulated cardiomyocytes. […] (FIG. 3B) Lac Z expression by the constitutive promoter CMV. Treatment with HDAC inhibitors augmented CMV activity with and without phenylephrine co-treatment. (FIGS. 3C and 3D) The graphs show the measurements of adenylate kinase activity remains constant in the medium after […] of culturing cardiomyocytes in the absence or presence of hypertrophic stimulants FBS, PE or ET-1.
(§2) Transcription assay. Twenty-four hours after plating, cells were transfected with total of 1 μg/ml for 5 hrs using Lipofectamine Plus reagent (Invitrogen, Carlsbad, Calif.). Transfected cells were incubated 24 hrs then treated for an additional 24 hrs. Cells were lysed and their lysates assayed with the Luciferase Assay System (Promega, Madison, Wis.) for luminescence using Lucysoft 2 luminometer (Rosys Anthos, New Castle, Del.).

[2] = tested on: ANF promoter in neonatal rat cardiomyocytes; assay: ANF promoter transcription (luciferase) assay; assay type: cell-based; conditions: for activation of ANF promoter by phenylephrine: phenylephrine 100 μM, TSA 85 nM, NaBut 5 mM, HC-toxin 5 ng/ml; for ANF promoter activity, inhibitor alone: unstimulated cardiomyocytes
Procedure: as §1
Cardiomyocyte isolation. Hearts were harvested from 15-day timed-pregnant female Sprague-Dawley rats (Harlan, Houston, Tex.). After mincing in phosphate-buffered saline, cardiomyocytes were isolated from successive digestion fractions of 0.1% (w/v) Pancreatin (Sigma, St. Louis, Mo.) solution. Fractions were collected; resuspended in plating medium, pooled; and then plated for 2 hours to separate fibroblasts from cardiomyocyte population. Suspended cells were recollected and plated in 6-well dishes at 1×10^6 cells/well for transfection and immunofluorescence experiments, and 2×10^6 cells in 10 cm dishes for RNA analysis.
as §2

[3] = tested on: ANF, αSK-actin, αMyHC, βMyHC RNA in cardiomyocytes; assay: RNA dot blot of fetal gene program; assay type: cell-based, rat; conditions: phenylephrine 100 μM, TSA 85 nM, sodium butyrate 5 mM, HC-toxin 5 ng/ml
Procedure: FIGS. 5A-B. Treatment of cardiomyocytes with HDAC inhibitors blocks the fetal gene program associated with cardiomyocyte hypertrophy. […] The graphs represent three or more independent experiments.
Dot Blot analysis. Total RNA was isolated from cardiomyocytes that were either untreated, treated with phenylephrine, treated with TSA, or co-treated with phenylephrine and TSA. One microgram of RNA was blotted onto Nitrocellulose (Bio-Rad, Hercules, Calif.) and hybridized at 50° C. for 14 hrs with end-labeled oligos. (ANF, 5′-[…]-3, SEQ ID NO 1; αSK actin5′-[…]-3′, SEQ ID NO2; αMyHC,5′[…]-3′, SEQ ID NO 3; βMyHC5′-[…]-3′, SEQ ID NO 4; GAPDH5′-[…]-3′, SEQ ID NO 5). The blots were washed twice in 2×SSC/0.5% SDS solution and exposed to film (Kodak, Rochester, N.Y.) or phosphoimager (Amersham Bioscience, Sunnyvale, Calif.). The intensity of the hybridization of the probes was measured using ImageQuant® (Amersham Bioscience, Sunnyvale, Calif.).

transformed cells = conditions: Marks et al. (2000); cited from earlier work
HDAC = conditions: Marks et al. (2000); cited from earlier work
cardiomyocytes = assay: Protein synthesis (tritiated leucine, S6 ribosomal protein); assay type: cell-based, rat
Procedure: FIG. 6. The effects of TSA treatment on the reorganization of the sarcomeres and protein synthesis. […] The graphs on the right show the content of S6 ribosome protein in cardiomyocytes after 24 hours co-treatment with PE and increasing concentrations of TSA or with serum and increasing concentrations of TSA.
Protein synthesis. Cardiomyocytes were incubated with (1.0 μCi/ml; 172 Ci/mmol sp. activity) tritiated-leucine (ICN Biochemicals, Inc., Irvine, Calif.) in treated RPMI media (Invitrogen, Carlsbad, Calif.). After 6 hrs incubation, the cells were washed twice with 1× PBS, then incubated in 10% TCA on ice for 30 min. Afterwards, the cells were washed twice with 5% TCA, once with water, and then lysed in […]. Lysates were measured in one-sixth volume of scintillation fluid by a scintillation counter (Beckman, Fullerton, Calif.).
S6 Ribosomal protocol. After blocking, cells were incubated in 1% BSA/1× PBS containing 50 μg/ml anti-S6 protein (Cell Signaling, […]) for 1 hr. After washing, the cells were incubated with IgG-HRP (Jackson Labs, […]) at a 1:400 dilution. The cells were then washed twice in 1% BSA/1× PBS, in 1× PBS, then blotted dry. Luminol (Pierce, Rockford, Ill.) was added and the chemiluminescence was detected in a Fusion reader (Perkin-Elmer/Packard).

[4] = tested on: ANF in neonatal cardiomyocytes; assay: ANF chemiluminescence detection, dose response; assay type: cell-based, rat
Procedure: FIGS. 4A-C. […] As in the transfection experiments, phenylephrine (100 µM) induces ANF expression over three-fold. […] (FIGS. 4B and 4C) The graphs show a reduction of the chemiluminent detection of ANF in the culture medium with increasing concentrations of the HDAC inhibitors TSA (FIG. 4B) and sodium butyrate (FIG. 4C) when co-cultured with the hypertrophic stimulants FBS, PE or ET-1.
Chemilumenescence. Neonatal cardiomyocytes were seeded onto 96-well plates and treated for 72 hrs. The cells were washed twice in 1×PBS, fixed in 4% paraformaldehyde/1×PBS, and permeabilized with 0.1% Triton-X100. After blocking, the cells were incubated 1 hr. with 10 μg/ml monoclonal anti-ANF antibody (Biodesign). The wells were washed twice with 1% BSA/1× PBS and then incubated for 1 hr. with goat anti-mouse IgG-Fc-HRP (Jackson Labs, […]) at 1:1000 in 1× PBS/1% BSA. Cells were washed twice with 1% BSA/1×PBS, twice with 1× PBS, then blotted dry. Luminol (Pierce, Rockford, Ill.) was added and the chemiluminescence was detected in a Fusion Plate Reader (Perkin Elmer/Packard).

cultured cardiomyocytes = assay: Adenylate kinase release cytotoxicity assay; assay type: cell-based; conditions: increasing doses: TSA up to 100 nM, sodium butyrate up to 25 nM
Procedure: as §1
Inventors then examined whether increasing doses of TSA and sodium butyrate were cytotoxic to cultured cardiomyocytes. To determine cell mortality, the release of adenylate kinase from cardiomyocytes into the culture medium was assayed. This assay is a known measurement for the integrity of the cell membrane: membranes become permeable in dying cells causing the cells release adenylate kinase.

Row | Compound | transcriptional activity of CMV-Lac Z reporter [1] | activation of ANF promoter by phenylephrine [2] | ANF promoter activity, inhibitor alone [2] | phenylephrine-induced endogenous ANF RNA expression [3] | effect on transformed cells (transformed cells) | also measured
1 | C[C@@H]1NC(=O)[C@H]2CCCN2C(=O)[C@H](CCCCCC(=O)[C@@H]2CO2)NC(=O)[C@@H](C)NC1=O [HC-toxin] | increased the transcriptional activity of the CMV-Lac Z reporter | did block the promoter's activation by phenylephrine treatment completely; also recorded: prevented the activation of the ANF promoter | did not activate the ANF promoter | prevented the phenylephrine-induced ANF response; also recorded: blocks the accumulation of ANF message |  | 
2 | O=C(CCCCCCC(=O)Nc1ccccc1)NO [SAHA, suberoylanilide hydroxamic acid] |  |  |  |  | induce growth arrest, differentiation, or apoptotic cell death of transformed cells | 
3 | O=C(CCCCCCC(=O)Nc1cccnc1)NO [pyroxamide, suberoyl-3-aminopyridineamide hydroxyamic acid] |  |  |  |  | induce growth arrest, differentiation, or apoptotic cell death of transformed cells | inhibition of HDAC (HDAC): potent inhibitors of HDAC in vitro and in vivo
4 | CCCC(=O)[O-].[Na+] [sodium butyrate] | increased the transcriptional activity of the CMV-Lac Z reporter | did block the promoter's activation by phenylephrine treatment completely | did not activate the ANF promoter | blocks the accumulation of ANF message |  | phenylephrine-stimulated protein synthesis, 6 hours (cardiomyocytes; 6 hours co-culture with phenylephrine): had little effect on the stimulation of protein synthesis; protein synthesis induced by PE or serum, 24 hrs (cardiomyocytes; 24 hrs co-treatment): antagonized the protein synthesis normally induced by PE or serum in a dose-dependent manner; minimal concentration that inhibited the hypertrophic response (ANF) of each growth stimulant ([4]; FBS, PE, ET-1): 5 mM; induction of ANF expression by FBS, PE and ET-1 ([4]; increasing concentrations): countered the induction of ANF expression; ANF expression at very low doses ([4]; very low doses (0.2 nM printed for sodium butyrate)): near two-fold increase; activation of ANF promoter by phenylephrine ([2]; listed as NaBut): prevented the activation of the ANF promoter; phenylephrine-induced endogenous ANF RNA expression ([3]; listed as NaBut): prevented the phenylephrine-induced ANF response; adenylate kinase in the culture medium (cell death) (cultured cardiomyocytes): did little to increase adenylate kinase
